{"source": "patent US20020035131A1", "about": "“Regimen and kit for amelioration of premature ejaculation” (Pentech Pharmaceuticals, Inc., priority 1999, published 2002)", "key": {"[1]": {"system": "normally potent male patients suffering from premature ejaculation", "test": "Example 2 Study Group 1: single blind cross-over, continual maintenance paroxetine vs placebo (ELT, coitus frequency)", "format": "in vivo, human", "excerpt": "All patients in the study group were heterosexual, had no other sexual disorders and were either married or in a stable relationship. Patients with erectile dysfunction, reduced sexual desire, inhibited male orgasm, chronic depressive, psychiatric or physical illness, alcohol or substance abuse and the use of psychotropic and anti-depressant medication were excluded from the trial. Study Group 1 was comprised of 26 patients who were randomized into two treatment groups, Group A and Group B. […] Group B received placebo similarly administered about 3-4 hours before sexual intercourse. Patients were reviewed every two weeks. Cross-over was then conducted in both groups after four weeks of treatment, following an intervening three week drug free “washout” period, for a further four weeks of treatment. None of the patients received any formal psychosexual counseling. Patients were supplied with a diary and were asked to record their frequency of coitus, quality of erection and orgasm. Patients were asked to measure their ELT using a stopwatch. Pre-treatment mean ELT was measured over a three week baseline period during which patients were asked to have sexual intercourse at least three times. Pre-treatment frequency of coitus was the mean number of attempts in the previous three months. Patients were asked not to use condoms or topical penile anaesthetic creams or sprays. The frequency data of coitus and ejaculatory latency time (ELT) during the paroxetine and placebo treatment phases were statistically compared (Student's t-test)."}, "[2]": {"system": "healthy men with a diagnosis of premature ejaculation (PE)", "test": "Example 4: double-blind, randomized, parallel safety and efficacy study, 6, 9 and 12 mg capsules", "format": "in vivo, human", "details": "for Time to Ejaculate, Mean Time (minutes), Reported By Partner / Time to Ejaculate, Range (minutes), Reported By Partner / Time to Ejaculate, Mean Time (minutes), Reported By Patient / Time to Ejaculate, Range (minutes), Reported By Patient: after 6 weeks treatment, baseline latency ≦ 2 minutes, preliminary data; for Time to Ejaculate, Mean Time (minutes), Reported By Partner / Time to Ejaculate, Range (minutes), Reported By Partner: n 23; for Reason for Early Termination: AE (Adverse Experience), patients: 6, 9 and 12 mg capsules combined", "method": "A double-blind, randomized, parallel safety and efficacy study was conducted at six clinical sites, A-F. […] The study consisted of a screening period, baseline period, and two treatment periods. The patients who completed the study participated for about nine weeks. The patients selected were healthy men between the ages of 21 and 65 years with a diagnosis of premature ejaculation (PE). Patients who met the selection criteria provided a medical history and submitted to psychosexual and physical examinations at screening. The efficacy of the paroxetine capsules was assessed at each visit. Safety was assessed by physical examinations and adverse experience (AE) reports, if any, were collected throughout the study. A post-treatment physical assessment was performed at the final visit. Qualified patients who were admitted to this study were assigned an identification number in sequential order by enrollment. […] There were a total of about eighteen patients per dose/per site. […] The capsule was to be taken one hour after breakfast or within two hours of awakening."}, "dopamine receptors": {"system": "dopamine receptors", "details": "unlike sertraline; cited from earlier work"}, "P450 2D6 enzyme": {"molecular_target": "P450 2D6 enzyme (Homo sapiens, UniProt P10635)", "sequence (P10635 whole entry)": "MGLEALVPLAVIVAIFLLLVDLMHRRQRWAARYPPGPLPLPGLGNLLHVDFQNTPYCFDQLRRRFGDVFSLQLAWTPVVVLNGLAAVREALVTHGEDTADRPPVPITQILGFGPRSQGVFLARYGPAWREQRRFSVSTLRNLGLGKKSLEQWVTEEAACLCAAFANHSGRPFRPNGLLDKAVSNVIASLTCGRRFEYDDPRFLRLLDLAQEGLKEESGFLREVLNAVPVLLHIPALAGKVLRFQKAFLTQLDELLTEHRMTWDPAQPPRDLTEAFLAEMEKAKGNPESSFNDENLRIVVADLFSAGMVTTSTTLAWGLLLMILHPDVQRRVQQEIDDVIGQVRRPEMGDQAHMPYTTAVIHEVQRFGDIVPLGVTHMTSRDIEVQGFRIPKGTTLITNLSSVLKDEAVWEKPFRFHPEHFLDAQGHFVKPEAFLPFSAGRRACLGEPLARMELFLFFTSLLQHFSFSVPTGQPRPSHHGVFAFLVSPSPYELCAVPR", "details": "cited from earlier work"}, "[3]": {"details": "Study Group 1-A, week 1: continual maintenance paroxetine 20 mg 3-4 hours before intercourse"}, "[4]": {"details": "Study Group 1-A, week 2: continual maintenance paroxetine 20 mg 3-4 hours before intercourse"}, "[5]": {"details": "Study Group 1-A, week 3: continual maintenance paroxetine 20 mg 3-4 hours before intercourse"}, "[6]": {"details": "Study Group 1-A, week 4: continual maintenance paroxetine 20 mg 3-4 hours before intercourse"}, "[7]": {"details": "Study Group 1-B, week 8: first week of continual maintenance paroxetine 20 mg after placebo and washout"}, "[8]": {"details": "Study Group 1-B, week 9: second week of continual maintenance paroxetine 20 mg after placebo and washout"}, "[9]": {"details": "Study Group 1-B, week 10: third week of continual maintenance paroxetine 20 mg after placebo and washout"}, "[10]": {"details": "Study Group 1-B, week 11: fourth week of continual maintenance paroxetine 20 mg after placebo and washout"}}}
{"smiles": "Fc1ccc([C@@H]2CCNC[C@H]2COc2ccc3c(c2)OCO3)cc1", "note": "(relative stereo) [paroxetine, trans-(−)-3-(1,3-benzodioxol-5-yloxy)methyl-4-(4-fluorophenyl) piperidine]", "values": [{"measurement": "Coitus Frequency/wk", "setting": "[1]; [3]", "value": "1.1 /wk"}, {"measurement": "Ejaculatory Latency Time", "setting": "[1]; [3]", "value": 1.0, "unit": "min"}, {"measurement": "Coitus Frequency/wk", "setting": "[1]; [4]", "value": "1.4 /wk"}, {"measurement": "Ejaculatory Latency Time", "setting": "[1]; [4]", "value": 3.0, "unit": "min"}, {"measurement": "Coitus Frequency/wk", "setting": "[1]; [5]", "value": "2.3 /wk"}, {"measurement": "Ejaculatory Latency Time", "setting": "[1]; [5]", "value": 2.9, "unit": "min"}, {"measurement": "Coitus Frequency/wk", "setting": "[1]; [6]", "value": "3.2 /wk"}, {"measurement": "Ejaculatory Latency Time", "setting": "[1]; [6]", "value": 3.2, "unit": "min"}, {"measurement": "Coitus Frequency/wk", "setting": "[1]; [7]", "value": "0.6 /wk"}, {"measurement": "Ejaculatory Latency Time", "setting": "[1]; [7]", "value": 1.3, "unit": "min"}, {"measurement": "Coitus Frequency/wk", "setting": "[1]; [8]", "value": "1.9 /wk"}, {"measurement": "Ejaculatory Latency Time", "setting": "[1]; [8]", "value": 2.8, "unit": "min"}, {"measurement": "Coitus Frequency/wk", "setting": "[1]; [9]", "value": "3.5 /wk"}, {"measurement": "Ejaculatory Latency Time", "setting": "[1]; [9]", "value": 3.5, "unit": "min"}, {"measurement": "Coitus Frequency/wk", "setting": "[1]; [10]", "value": "3.1 /wk"}, {"measurement": "Ejaculatory Latency Time", "setting": "[1]; [10]", "value": 3.5, "unit": "min"}, {"measurement": "time to prolongation of the ejaculatory interval (ELT)", "setting": "[1]; Study Group 1: continual maintenance paroxetine", "value": "1-2 weeks"}, {"measurement": "patients achieving intra-vaginal ejaculation for the first time", "setting": "[1]; Study Group 1, patients who had never previously achieved it, after two weeks of treatment", "value": "one of three"}, {"measurement": "Time to Ejaculate, Mean Time (minutes), Reported By Partner", "setting": "[2]; 6 mg capsule daily", "value": 2.6, "unit": "min"}, {"measurement": "Time to Ejaculate, Range (minutes), Reported By Partner", "setting": "[2]; 6 mg capsule daily", "value": "0.4 to 15", "unit": "min"}, {"measurement": "Time to Ejaculate, Mean Time (minutes), Reported By Patient", "setting": "[2]; 6 mg capsule daily, n 25", "value": 2.4, "unit": "min"}, {"measurement": "Time to Ejaculate, Range (minutes), Reported By Patient", "setting": "[2]; 6 mg capsule daily, n 25", "value": "0.03 to 16", "unit": "min"}, {"measurement": "Time to Ejaculate, Mean Time (minutes), Reported By Partner", "setting": "[2]; 9 mg capsule daily", "value": 2.3, "unit": "min"}, {"measurement": "Time to Ejaculate, Range (minutes), Reported By Partner", "setting": "[2]; 9 mg capsule daily", "value": "0.03 to 10", "unit": "min"}, {"measurement": "Time to Ejaculate, Mean Time (minutes), Reported By Patient", "setting": "[2]; 9 mg capsule daily, n 25", "value": 2.4, "unit": "min"}, {"measurement": "Time to Ejaculate, Range (minutes), Reported By Patient", "setting": "[2]; 9 mg capsule daily, n 25", "value": "0.03 to 12.5", "unit": "min"}, {"measurement": "Time to Ejaculate, Mean Time (minutes), Reported By Partner", "setting": "[2]; 12 mg capsule daily", "value": 3.5, "unit": "min"}, {"measurement": "Time to Ejaculate, Range (minutes), Reported By Partner", "setting": "[2]; 12 mg capsule daily", "value": "0.12 to 30", "unit": "min"}, {"measurement": "Time to Ejaculate, Mean Time (minutes), Reported By Patient", "setting": "[2]; 12 mg capsule daily, n 24", "value": 2.4, "unit": "min"}, {"measurement": "Time to Ejaculate, Range (minutes), Reported By Patient", "setting": "[2]; 12 mg capsule daily, n 24", "value": "0.25 to 10", "unit": "min"}, {"measurement": "Reason for Early Termination: AE (Adverse Experience), patients", "setting": "[2]; Clinical Site A, 10 enrolled", "value": 0}, {"measurement": "Reason for Early Termination: AE (Adverse Experience), patients", "setting": "[2]; Clinical Site B, 16 enrolled", "value": 3}, {"measurement": "Reason for Early Termination: AE (Adverse Experience), patients", "setting": "[2]; Clinical Site C, 34 enrolled", "value": 1}, {"measurement": "Reason for Early Termination: AE (Adverse Experience), patients", "setting": "[2]; Clinical Site D, 6 enrolled", "value": 1}, {"measurement": "Reason for Early Termination: AE (Adverse Experience), patients", "setting": "[2]; Clinical Site E, 22 enrolled", "value": 1}, {"measurement": "Reason for Early Termination: AE (Adverse Experience), patients", "setting": "[2]; Clinical Site F, 19 enrolled", "value": 2}, {"measurement": "Reason for Early Termination: AE (Adverse Experience), patients", "setting": "[2]; TOTALS of sites A-F, 107 enrolled", "value": 8}, {"measurement": "affinity for dopamine receptors", "setting": "dopamine receptors", "value": "little affinity"}, {"measurement": "inhibition of the P450 2D6 enzyme", "setting": "P450 2D6 enzyme", "value": "potent inhibitor"}]}
